Laboratory results reported in patent publication US10759766B2, “Certain chemical entities, compositions, and methods” (NeuPharma, Inc., priority 2011, dated 2020).

How the values were obtained:
[1] = target: BRAF V600E (Homo sapiens (Human), UniProt P15056, V600E); assay: Z′-LYTE kinase inhibition assay (Invitrogen), BRAF V600E; type: biochemical; conditions: Z′-LYTE method; for inhibition at 1 µM: 1 μM compound, read-out: % inhibition at 1 μM against BRAF V600E
Experimental: (§1) Inhibitory activities Inhibitory activities of compounds against BRAF, and BRAF V600E were measured by Invitrogen using Z′-LYTE® Method as briefly described in the following. 4× Test compounds are dissolved in 1% DMSO. […] ATP solutions are diluted to a 4×ATP working concentration in Kinase Buffer (50 mM HEPES pH 7.5, 0.01% BRIJ-35, 10 mM MgCl2, 1 mM EGTA). Reaction started by 30-second shaking of mixture consisting of 2.5 μL 4× test compound, […] and 2.5 μL 4×ATP Solution on Bar-coded Corning, low volume NBS, black 384-well plate (Corning Cat. #3676). Then the mixture was incubated for 60-minute at room temperature for the kinase reaction, followed by addition of 5 μL of a 1:1024 dilution of development reagent A and 30-second plate shake. The mixture was then incubated for another 60-minute at room temperature for development reaction. Fluorescence was read by plate reader. IC50 was calculated by plotting the concentration of compound vs the percentage of inhibition in treated wells using GraphPad Prism 5.
The scale utilized in Table 3 is as follows: +++ less than 100 nM; and ++ greater than 100 nM.

[2] = test system: A375 cells; assay: Inhibition of cancer cell growth, MTT assay, A375; type: cell-based; conditions: Homo sapiens, A-375, 72 h exposure
Experimental: (§2) Inhibition of cell growth by compounds was measured using MTT assay (Mosmann, T., Journal of Immunological Methods, 1983, 65, 55-63). Tumor cell lines were purchased from ATCC (American Type Culture Collection, Manassas, Va.). All cell lines were maintained in RPMI 1640 (Hyclone) supplemented with 10% fetal bovine serum (FBS, Hyclone), glutamine (2 mM, Hyclone), and antibiotics (penicillin 100 U/mL and streptomycin 50 μg/mL) at 37° C. in a humidified atmosphere of 5% CO2 in air. Taxol (as a positive control, Sigma) and compounds were dissolved in DMSO (Sigma), and the final concentration of DMSO in the medium was 1%. Tumor cells were plated in 96-well plates at densities of about 4000 cells/well of a 96-well plate and allowed to adhere/grow for 24 h. They were then treated with various concentrations of drug for 72 h. 3-(4,5-Dimethylthiazol-2-yl)-2,5-diphenyltetrazolium bromide (MTT, Sigma) was used to determine the number of viable cells at the time of compound addition and the number of cells remaining after 72 h compound exposure. The number of cells remaining after 72 h was compared to the number of viable cells at the time of compound addition by measuring the absorbance at 570 nm, allowing for the calculation of growth inhibition.
(§3) All concentrations of compounds were tested in triplicate and controls were averaged over 4 wells. IC50 was calculated by plotting the concentration of compound vs the percentage of inhibition in treated wells using GraphPad Prism 5. […] The scale utilized in Table 6 is as follows: +++ less than 1000 nM; ++ between 1000 nM and 5000 nM; and + greater than 5000 nM. The scale utilized in Table 7 is as follows: +++ less than 2000 nM; ++ between 2000 nM and 5000 nM; and + greater than 5000 nM.

[3] = test system: A549 cells; assay: Inhibition of cancer cell growth, MTT assay, A549; type: cell-based; conditions: Homo sapiens, A549, 72 h exposure
Experimental: as §2, §3

[4] = target: KDR (VEGFR2) (Homo sapiens (Human), UniProt P35968); assay: Z′-LYTE kinase inhibition assay (Invitrogen), KDR; type: biochemical; conditions: Z′-LYTE method; for inhibition at 1 µM: 1 μM compound, read-out: % inhibition at 1 μM against KDR; for IC50: read-out: IC50 against KDR
Experimental: as §1
Inhibitory activities of compounds against KDR (VEGFR2) were also measured by Invitrogen using Z′-LYTE® Method as described above with the following modification. The 2× KDR (VEGFR2)/Tyr 01 mixture is prepared in 50 mM HEPES pH 7.5, 0.01% BRIJ-35, 10 mM MgCl2, 1 mM EGTA. The final 10 μL Kinase Reaction consists of 0.5-11.7 ng KDR (VEGFR2) and 2 μM Tyr 01 in 50 mM HEPES pH 7.5, 0.01% BRIJ-35, 10 mM MgCl2, 1 mM EGTA. After the 1 hour Kinase Reaction incubation, 5 μL of a 1:256 dilution of Development Reagent B is added.
The scale utilized in Table 5 is as follows: +++ less than 100 nM; and ++ greater than 100 nM

Sequence of BRAF V600E (P15056 whole entry V600E): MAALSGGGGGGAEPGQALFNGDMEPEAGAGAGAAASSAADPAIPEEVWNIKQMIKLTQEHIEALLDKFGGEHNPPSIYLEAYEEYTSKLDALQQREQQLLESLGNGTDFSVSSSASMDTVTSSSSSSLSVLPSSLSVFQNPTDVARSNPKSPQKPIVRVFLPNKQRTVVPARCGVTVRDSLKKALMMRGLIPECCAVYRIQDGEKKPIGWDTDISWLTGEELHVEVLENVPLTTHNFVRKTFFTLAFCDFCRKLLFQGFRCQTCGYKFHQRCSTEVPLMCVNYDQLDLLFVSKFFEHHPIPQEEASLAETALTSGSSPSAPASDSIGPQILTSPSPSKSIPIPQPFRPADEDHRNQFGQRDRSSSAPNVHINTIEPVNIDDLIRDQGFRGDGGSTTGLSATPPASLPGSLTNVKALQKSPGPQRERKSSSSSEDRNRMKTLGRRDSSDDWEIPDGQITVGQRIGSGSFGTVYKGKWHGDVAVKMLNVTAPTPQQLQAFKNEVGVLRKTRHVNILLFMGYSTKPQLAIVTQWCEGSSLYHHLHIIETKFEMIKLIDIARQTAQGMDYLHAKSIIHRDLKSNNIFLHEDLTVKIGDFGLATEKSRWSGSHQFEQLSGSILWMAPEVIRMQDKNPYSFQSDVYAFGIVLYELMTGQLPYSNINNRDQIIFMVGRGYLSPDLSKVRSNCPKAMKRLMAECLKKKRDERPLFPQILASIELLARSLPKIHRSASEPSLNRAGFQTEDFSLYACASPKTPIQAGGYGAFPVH
Sequence of KDR (VEGFR2) (P35968 20-1356): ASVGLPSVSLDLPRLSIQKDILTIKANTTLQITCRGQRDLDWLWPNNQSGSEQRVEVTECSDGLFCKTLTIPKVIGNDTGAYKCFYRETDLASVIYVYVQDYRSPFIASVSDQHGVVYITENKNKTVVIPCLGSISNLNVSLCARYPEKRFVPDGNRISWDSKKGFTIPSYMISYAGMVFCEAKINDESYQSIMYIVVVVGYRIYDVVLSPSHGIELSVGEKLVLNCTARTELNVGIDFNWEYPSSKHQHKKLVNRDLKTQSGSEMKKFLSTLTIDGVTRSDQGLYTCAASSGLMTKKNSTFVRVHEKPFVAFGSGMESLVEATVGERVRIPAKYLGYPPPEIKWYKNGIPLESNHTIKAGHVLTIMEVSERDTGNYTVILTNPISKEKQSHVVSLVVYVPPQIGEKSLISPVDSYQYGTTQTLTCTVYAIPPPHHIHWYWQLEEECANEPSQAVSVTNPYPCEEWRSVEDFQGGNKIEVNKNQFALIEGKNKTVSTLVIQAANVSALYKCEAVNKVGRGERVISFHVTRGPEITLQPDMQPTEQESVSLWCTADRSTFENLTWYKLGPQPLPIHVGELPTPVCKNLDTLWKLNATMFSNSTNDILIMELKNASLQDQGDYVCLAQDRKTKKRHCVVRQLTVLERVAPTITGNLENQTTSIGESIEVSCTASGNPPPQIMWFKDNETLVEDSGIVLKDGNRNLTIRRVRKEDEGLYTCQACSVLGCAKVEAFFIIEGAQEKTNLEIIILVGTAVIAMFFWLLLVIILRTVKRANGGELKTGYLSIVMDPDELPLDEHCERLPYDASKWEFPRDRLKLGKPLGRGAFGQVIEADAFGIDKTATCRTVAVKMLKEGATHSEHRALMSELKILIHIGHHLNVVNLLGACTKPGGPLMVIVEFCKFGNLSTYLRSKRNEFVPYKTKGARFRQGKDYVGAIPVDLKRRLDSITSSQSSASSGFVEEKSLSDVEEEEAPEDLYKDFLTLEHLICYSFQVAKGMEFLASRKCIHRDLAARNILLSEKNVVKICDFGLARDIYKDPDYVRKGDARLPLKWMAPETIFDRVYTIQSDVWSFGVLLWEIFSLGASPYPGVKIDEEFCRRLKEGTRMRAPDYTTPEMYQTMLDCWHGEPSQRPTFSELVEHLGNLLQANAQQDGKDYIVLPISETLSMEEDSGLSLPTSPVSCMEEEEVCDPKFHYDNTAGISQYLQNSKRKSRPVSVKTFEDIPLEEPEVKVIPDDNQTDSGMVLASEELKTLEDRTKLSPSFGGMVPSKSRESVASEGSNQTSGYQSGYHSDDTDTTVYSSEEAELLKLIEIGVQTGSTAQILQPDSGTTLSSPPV

Structure (SMILES) | inhibition at 1 µM [1] [%] | IC50 [2] [µM] | IC50 [3] [µM] | inhibition at 1 µM [4] [%] | IC50 [4] [µM] | IC50 ([1]; read-out: IC50 against BRAF V600E) [µM]
O=C(Nc1cccc(F)c1)Nc1cc(F)cc(C(=O)c2ccc3ncc(N4CCOCC4)nc3c2)c1 [Compound C037, 1-(3-fluoro-5-(3-morpholinoquinoxaline-6-carbonyl)phenyl)-3-(3-fluorophenyl)urea] | > 89 | 1 to 5 | > 5 | < 70 |  | 
O=C(Nc1ccc(C(F)(F)F)cc1)Nc1cc(F)cc(C(=O)c2ccc3ncc(N4CCOCC4)nc3c2)c1 [Compound C048, 1-(3-fluoro-5-(3-morpholinoquinoxaline-6-carbonyl)phenyl)-3-(4-(trifluoromethyl)phenyl)urea] | > 89 | < 1 | 2 to 5 | < 70 |  | 
O=C(Nc1cc(F)cc(C(=O)c2ccc3ncc(N4CCOCC4)nc3c2)c1)c1ccc(Cl)c(C(F)(F)F)c1 [Compound C135, 4-chloro-N-(3-fluoro-5-(3-morpholinoquinoxaline-6-carbonyl)phenyl)-3-(trifluoromethyl)benzamide] | 70 to 89 | 1 to 5 | > 5 | < 70 |  | 
O=C(Nc1cc(F)cc(Cl)c1)Nc1cc(F)cc(C(=O)c2ccc3ncc(N4CCOCC4)nc3c2)c1 [Compound C060, 1-(3-chloro-5-fluorophenyl)-3-(3-fluoro-5-(3-morpholinoquinoxaline-6-carbonyl)phenyl)urea] | > 89 | 1 to 5 | 2 to 5 | < 70 |  | 
O=C(Nc1cccc(C(=O)c2ccc3ncc(N4CCOCC4)nc3c2)c1)c1cccc(F)c1 [Compound C118, 3-fluoro-N-(3-(3-morpholinoquinoxaline-6-carbonyl)phenyl)benzamide] | > 89 | 1 to 5 | 2 to 5 | 70 to 89 |  | 
O=C(Nc1cc(F)cc(C(=O)c2ccc3nccnc3c2)c1)Nc1cccc(C(F)(F)F)c1 [Compound C027, 1-(3-fluoro-5-(quinoxaline-6-carbonyl)phenyl)-3-(3-(trifluoromethyl)phenyl)urea] | > 89 | > 5 | < 2 | 70 to 89 |  | 
O=C(Nc1cccc(F)c1)Nc1cccc(C(=O)c2ccc3ncc(N4CCOCC4)nc3c2)c1 [Compound C016, 1-(3-fluorophenyl)-3-(3-(3-morpholinoquinoxaline-6-carbonyl)phenyl)urea] | > 89 | > 5 | > 5 | 70 to 89 | > 0.1 | < 0.1
O=C(Nc1ccc(Cl)c(Cl)c1)Nc1ccc(F)c(C(=O)c2ccc3ncc(N4CCOCC4)nc3c2)c1 [Compound C058, 1-(3,4-dichlorophenyl)-3-(4-fluoro-3-(3-morpholinoquinoxaline-6-carbonyl)phenyl)urea] | > 89 | < 1 | < 2 | > 89 |  | 
O=C(Nc1cccc(F)c1)Nc1cc(F)c(F)c(C(=O)c2ccc3ncc(N4CCOCC4)nc3c2)c1F [Compound C033, 1-(3-fluorophenyl)-3-(2,4,5-trifluoro-3-(3-morpholinoquinoxaline-6-carbonyl)phenyl)urea] | 70 to 89 | 1 to 5 | 2 to 5 | < 70 |  | 
O=C(Nc1ccc(Cl)c(F)c1)Nc1ccc(F)c(C(=O)c2ccc3ncc(N4CCOCC4)nc3c2)c1 [Compound C052, 1-(4-chloro-3-fluorophenyl)-3-(4-fluoro-3-(3-morpholinoquinoxaline-6-carbonyl)phenyl)urea] | > 89 | < 1 | < 2 | 70 to 89 |  | 
Cn1cc(-c2cnc3ccc(C(=O)c4cccc(NC(=O)c5ccc(Cl)c(C(F)(F)F)c5)c4)cc3n2)cn1 [Compound C130, 4-chloro-N-(3-(3-(1-methyl-1H-pyrazol-4-yl)quinoxaline-6-carbonyl)phenyl)-3-(trifluoromethyl)benzamide] | > 89 | 1 to 5 | < 2 | > 89 |  | 
O=C(Nc1cccc(C(=O)c2ccc3ncc(N4CCOCC4)nc3c2)c1)c1ccc(Cl)c(C(F)(F)F)c1 [Compound C120, 4-chloro-N-(3-(3-morpholinoquinoxaline-6-carbonyl)phenyl)-3-(trifluoromethyl)benzamide] | > 89 | 1 to 5 | 2 to 5 | 70 to 89 |  | 
NCCNc1cnc2ccc(C(=O)c3cc(NC(=O)Nc4cc(F)cc(F)c4)ccc3F)cc2n1 [Compound C092, 1-(3-(3-((2-aminoethyl)amino)quinoxaline-6-carbonyl)-4-fluorophenyl)-3-(3,5-difluorophenyl)urea] | > 89 | 1 to 5 | > 5 | 70 to 89 |  | 

The next lines start with the values.

inhibition at 1 µM [1] [%] | IC50 [2] [µM] | IC50 [3] [µM] | inhibition at 1 µM [4] [%] | IC50 [4] [µM] | IC50 ([1]; read-out: IC50 against BRAF V600E) [µM] | Structure (SMILES)
> 89 | > 5 | > 5 | < 70 |  |  | O=C(Nc1cccc(F)c1)Nc1cc(F)cc(C(=O)c2ccc3nccnc3c2)c1 [Compound C025, 1-(3-fluoro-5-(quinoxaline-6-carbonyl)phenyl)-3-(3-fluorophenyl)urea]
> 89 | < 1 | 2 to 5 | > 89 | < 0.1 |  | O=C(Nc1ccc(F)c(C(=O)c2ccc3ncc(N4CCNCC4)nc3c2)c1)Nc1ccc(Cl)c(C(F)(F)F)c1 [Compound C086]
> 89 | 1 to 5 | 2 to 5 | 70 to 89 |  |  | O=C(Nc1cc(F)cc(Cl)c1)Nc1ccc(F)c(C(=O)c2ccc3nccnc3c2)c1 [Compound C078, 1-(3-chloro-5-fluorophenyl)-3-(4-fluoro-3-(quinoxaline-6-carbonyl)phenyl)urea]
> 89 | 1 to 5 | > 5 | > 89 |  |  | O=C(Nc1ccc(F)c(Cl)c1)Nc1ccc(F)c(C(=O)c2ccc3nccnc3c2)c1 [Compound C073, 1-(3-chloro-4-fluorophenyl)-3-(4-fluoro-3-(quinoxaline-6-carbonyl)phenyl)urea]
> 89 | > 5 | > 5 | < 70 |  |  | O=C(Nc1cc(F)c(F)c(C(=O)c2ccc3nccnc3c2)c1)c1cccc(F)c1 [Compound C131, N-(3,4-difluoro-5-(quinoxaline-6-carbonyl)phenyl)-3-fluorobenzamide]
> 89 | 1 to 5 | > 5 | 70 to 89 |  |  | O=C(Nc1cc(F)c(F)c(C(=O)c2ccc3nccnc3c2)c1)c1ccc(Cl)c(C(F)(F)F)c1 [Compound C129, 4-chloro-N-(3,4-difluoro-5-(quinoxaline-6-carbonyl)phenyl)-3-(trifluoromethyl)benzamide]
> 89 | 1 to 5 | 2 to 5 | < 70 |  |  | O=C(Nc1cccc(Cl)c1)Nc1cc(F)cc(C(=O)c2ccc3ncc(N4CCOCC4)nc3c2)c1 [Compound C047, 1-(3-chlorophenyl)-3-(3-fluoro-5-(3-morpholinoquinoxaline-6-carbonyl)phenyl)urea]
